Data as given in patent US11964980B2, “Crystalline forms of (S)-1-(4-fluorophenyl)-1-(2-(4-(6-(1-methyl-1H-pyrazol-4-yl)pyrrolo[2,1- f][1,2,4]triazin-4-yl)piperazinyl)-pyrimidin-5-yl)ethan-1-amine and methods of making” (Blueprint Medicines Corporation, priority 2019, dated 2024).
≈ marks a conversion by molar mass, not a printed value.

Key:
[1] = for Solubility, FaSSGF: pH 1.67; for Solubility, FaSSIF: pH 6.57
Experimental: Fasted simulated intestinal fluid (FaSSIF) (pH=6.57) was prepared by dissolving NaOH pellets (0.105 g), NaH2PO4·H2O (0.9875 g), and NaCl (1.5475 g) in distilled water (225 mL) and adjusting the pH to 6.57 by adding 1 N NaOH solution and 1 N HCl. Water was then added to a volume of 250 mL to produce phosphate buffer. Biorelevant powder (0.56 g) was dissolved in the phosphate buffer (125 mL), then made up to 250 mL using phosphate buffer. The prepared solution was left standing for 2 hours and then used for solubility measurements.
Fasted simulated gastric fluid (FaSSGF) (pH=1.67) was prepared by dissolving NaCl (0.5 g) in distilled water (225 mL). The pH was adjusted to 1.67 using 1 N HCl, then the solution was made up to 250 mL using distilled water to produce NaCl/HCl solution. Biorelevant powder (0.015 g) was dissolved in NaCl/HCl solution (125 mL), then made up to 250 mL using NaCl/HCl solution. The prepared solution was ready for use.
Solubility of crystalline Form A and a mixture of crystalline Form A and crystalline Form C was measured in fasted simulated intestinal fluid (FaSSIF), fasted simulated gastric fluid (FaSSGF), and water at 37° C. Thin slurries were stirred overnight and then supernatant was collected for HPLC analysis.
Solubility of crystalline Form H of a hydrochloride salt of Compound (I), crystalline Form Tr of a tartrate salt of Compound (I), and crystalline Form T of a tosylate salt of Compound (I) was measured in fasted state simulated intestinal fluid (FaSSIF), fasted state simulated gastric fluid (FaSSGF), and water at 37° C. About 1.5 mL solution was stirred at 37° C. The salt was then added incrementally until a thin slurry was formed, followed by stirring overnight. The solids were allowed to settle, and the pH of the supernatant was taken. Supernatant was recovered for injection to HPLC and solids were recovered for XRPD.
Solubility was determined based on interpolation from a calibration curve prepared using freebase.

[2] = Dynamic vapor sorption (DVS); assay type: physicochemical
Experimental: DVS: Dynamic Vapor Sorption (DVS) was performed using a DVS Intrinsic 1. The sample was loaded into a sample pan and suspended from a microbalance. A typical sample mass for DVS measurement was 25 mg. Nitrogen gas bubbled through distilled water provided the desired relative humidity. A typical measurement comprised the following steps: • 1. Equilibrate at 50% RH • 2. 50% to 2%. (50%, 40%, 30%, 20%, 10%, and 2%) • a. Hold minimum of 5 minutes and maximum of 60 minutes at each humidity. The pass criteria was less than 0.002% change; • 3. 2% to 95% (2%, 10%, 20%, 30%, 40%, 50%, 60%, 70%, 80%, 90%, 95%) • a. Hold minimum of 5 minutes and maximum of 60 minutes at each humidity. The pass criteria was less than 0.002% change; • 4. 95% to 2% (95%, 80%, 70%, 60%, 50%, 40%, 30%, 20%, 10%, 2%) • a. Hold minimum of 5 minutes and maximum of 60 minutes at each humidity. The pass criteria was less than 0.002% change; • 5. 2% to 50% (2%, 10%, 20%, 30%, 40%, 50%) • a. Hold minimum of 5 minutes and maximum of 60 minutes at each humidity. The pass criteria was less than 0.002% change.

patients = experiment: Clinical trials employing crystalline Form A: adverse effects; assay type: in vivo, human
Description: In clinical trials employing crystalline Form A of Compound (I), adverse effects were categorized by severity into Grades 1-5. Most adverse events reported were Grade 1 or 2, indicating crystalline Form A of Compound (I) is well-tolerated. […] Severe dose limiting toxicities for other TKIs may be a result of inhibiting a broad range of kinases.

[3] = Stability comparison of the crystalline forms; assay type: physicochemical; settings: ambient temperature
[4] = XRPD of solids recovered from the solubility slurries; assay type: physicochemical; settings: 37° C.; for Stability of crystalline form upon slurrying (XRPD): overnight
Experimental: XRPD: X-ray powder diffraction was done using a Rigaku MiniFlex 600. Samples were prepared on Si zero-return wafers. Typical scans were obtained from 20 of 4 to 30 degrees, with step size 0.05 degrees over five minutes with 40 kV and 15 mA. High resolution scans were obtained from 20 of 4 to 40 degrees, with step size 0.05 degrees over thirty minutes with 40 kV and 15 mA. Typical parameters for XRPD are listed below.
Solids were recovered from the slurries for analysis by XRPD. Crystalline Form H was stable upon slurrying in all solutions. Crystalline Form Tr was stable upon slurrying in water.

SMILES | Solubility, FaSSGF [1] | Solubility, FaSSIF [1] | Weight change in DVS experiment ([2]; 2-95% RH at 25° C.) | Weight change in DVS experiment ([2]; 2-95% RH at 40° C.) | Weight change in DVS experiment ([2]; 2-95% RH at room temperature) | other results
Cn1cc(-c2cc3c(N4CCN(c5ncc([C@@](C)(N)c6ccc(F)cc6)cn5)CC4)ncnn3c2)cn1 [crystalline Form T] | 1880 µg/mL (≈ 3.77 mM) | 80 µg/mL (≈ 0.16 mM) |  |  |  | 
Cn1cc(-c2cc3c(N4CCN(c5ncc([C@@](C)(N)c6ccc(F)cc6)cn5)CC4)ncnn3c2)cn1 [crystalline Form A, (S)-1-(4-fluorophenyl)-1-(2-(4-(6-(1-methyl-1H-pyrazol-4-yl)pyrrolo[2,1-f][1,2,4]triazin-4-yl)piperazin-1-yl)pyrimidin-5-yl)ethan-1-amine] | 2110 µg/mL (≈ 4.23 mM) |  | 0.42% | 0.29% |  | Hygroscopicity by DVS analysis [2]: non-hygroscopic; Weight change in DVS experiment ([2]; 70-95% RH at 40° C.): 0.20%; Moisture uptake by weight ([2]; exposed to 40° C. and up to 95% relative humidity): up to 0.44%; Severe dose limiting toxicities observed for other TKIs (dermatologic, hepatic, cardiovascular) (patients): did not exhibit; Severity grade of most adverse events reported (patients; Grades 1-5): Grade 1 or 2; Stability relative to the other crystalline forms [3]: more stable
Cn1cc(-c2cc3c(N4CCN(c5ncc([C@@](C)(N)c6ccc(F)cc6)cn5)CC4)ncnn3c2)cn1 [crystalline Form C, (S)-1-(4-fluorophenyl)-1-(2-(4-(6-(1-methyl-1H-pyrazol-4-yl)pyrrolo[2,1-f][1,2,4]triazin-4-yl)piperazin-1-yl)pyrimidin-5-yl)ethan-1-amine] | 2720 µg/mL (≈ 5.46 mM) | 30 µg/mL (≈ 0.0602 mM) | 2.90% | 2.99% |  | Weight change in DVS experiment ([2]; 2-10% RH at 25° C.): 1.76%; Weight change in DVS experiment ([2]; 2-10% RH at 40° C.): 1.93%
Cn1cc(-c2cc3c(N4CCN(c5ncc([C@@](C)(N)c6ccc(F)cc6)cn5)CC4)ncnn3c2)cn1 [crystalline Form H] | 4180 µg/mL (≈ 8.38 mM) | 100 µg/mL (≈ 0.201 mM) |  |  | 15% | Weight change in DVS experiment ([2]; 80-95% RH at room temperature): 10.8%; Stability of crystalline form upon slurrying (XRPD) ([4]; all solutions (FaSSIF, FaSSGF, water)): stable
Cn1cc(-c2cc3c(N4CCN(c5ncc([C@@](C)(N)c6ccc(F)cc6)cn5)CC4)ncnn3c2)cn1 [crystalline Form Tr] | 4790 µg/mL (≈ 9.61 mM) | 270 µg/mL (≈ 0.542 mM) |  |  | 4.4% | Stability of crystalline form upon slurrying (XRPD) ([4]; FaSSGF): converted into crystalline Form H; Behaviour of solid in slurry ([4]; FaSSIF): gummed; Stability of crystalline form upon slurrying (XRPD) ([4]; water): stable
